Assay: magnetic field-magnetization curve measured with MPMS7 (Quantum Design)
Type: physicochemical
Conditions: 37 degrees Celsius (310 K)
Description: Also, FIG. 8 is a graph showing the magnetic field-magnetization curves of the Mn salen complex, the Cr salen complex, and the Fe salen complex.

[Co+2].[O-]c1ccccc1C=NCCN=Cc1ccccc1[O-] [Co salen complex]
magnetism from magnetic field-magnetization curve: paramagnetic

— US20140046021A1, “SELF-MAGNETIC METAL-SALEN COMPLEX COMPOUND” (IHI CORPORATION, priority 2011, published 2014)
